Data on 5 molecules can be found in patent US10709719B2, “Substituted bicyclic compounds” (BRISTOL-MYERS SQUIBB COMPANY, priority 2014, dated 2020).

One assay addresses S1P1 (Homo sapiens (Human), UniProt P21453). The experiment in a line: Receptor [35S]GTPγS binding assay (S1P1 GTPγS), membranes from S1P1/CHO cells. The assay is classed as biochemical. The note with it: result in words. As for the experimental part: Compounds were loaded in a 384 Falcon v-bottom plate (0.5 μl/well in a 11 point, 3-fold dilution). Membranes prepared from S1P1/CHO cells or EDG3-Gal5-bla HEK293T cells (EDG3 equivalent S1P3) were added to the compound plate (40 μl/well, final protein 3 μg/well) with MULTIDROP®. […] 40 μl of the [^35S] GTP solution was added to the compound plate with a final concentration of 0.2 nM. The reaction was kept at room temperature for 45 min. At the end of incubation, all the mixtures in the compound plate were transferred to Millipore 384-well FB filter plates via the VELOCITY11® Vprep liquid handler. The filter plate was washed with water 4 times by using the manifold Embla plate washer and dried at 60° C. for 45 min. MicroScint 20 scintillation fluid (30 μl) was added to each well for counting on the Packard TOPCOUNT®.
A larger value for the GTPγS S1P3 EC50 value indicated less activity in the GTPγS S1P3 binding assay.
Background: GTPγS resists hydrolysis and so accumulates on activated G proteins.

A further assay concerns the target S1P3 (EDG3) (Homo sapiens (Human), UniProt Q99500). The experiment in a line: Receptor [35S]GTPγS binding assay (S1P3 GTPγS), membranes from EDG3-Gal5-bla HEK293T cells. The assay is classed as biochemical. The note with it: GTPγS S1P1 versus S1P3, result in words. As for the experimental part: Compounds were loaded in a 384 Falcon v-bottom plate (0.5 μl/well in a 11 point, 3-fold dilution). Membranes prepared from S1P1/CHO cells or EDG3-Gal5-bla HEK293T cells (EDG3 equivalent S1P3) were added to the compound plate (40 μl/well, final protein 3 μg/well) with MULTIDROP®. [^35S]GTP (1250 Ci/mmol, Perkin Elmer) was diluted in assay buffer: 20 mM HEPES, pH7.5, 10 mM MgCl2, 150 mM NaCl, 1 mM EGTA(ethylene glycol tetraacetic acid), 1 mM DTT (Dithiothreitol), 10 μM GDP, 0.1% fatty acid free BSA, and 10 μg/ml Saponin to 0.4 nM. 40 μl of the [^35S] GTP solution was added to the compound plate with a final concentration of 0.2 nM. The reaction was kept at room temperature for 45 min. At the end of incubation, all the mixtures in the compound plate were transferred to Millipore 384-well FB filter plates via the VELOCITY11® Vprep liquid handler. The filter plate was washed with water 4 times by using the manifold Embla plate washer and dried at 60° C. for 45 min. MicroScint 20 scintillation fluid (30 μl) was added to each well for counting on the Packard TOPCOUNT®.
A smaller value for GTPγS S1P EC50 value indicated greater activity for the compound in the GTPγS S1P binding assay. A larger value for the GTPγS S1P3 EC50 value indicated less activity in the GTPγS S1P3 binding assay. […]

Assay [1] relates to adjuvant-induced arthritis, hind paw volume. The experiment in a line: Rat adjuvant induced arthritis assay (AA). The assay is classed as in vivo, Lewis rats. The note with it: Lewis rat, prophylactic oral dosing regimen. How it is done:
The rat adjuvant-induced arthritis model is an animal model for human rheumatoid arthritis. Male Lewis rats (150-175 g; Harlan, n=8 treatment group) were immunized at the base of the tail with 100 μl of 10 mg/ml freshly ground Mycobacterium butyricum (Difco Laboratories) in incomplete Freund's adjuvant (sigma). Animals were dosed once daily with the test article (as a solution or suspension in the vehicle) or vehicle alone (polyethylene glycol 300, “PEG300”) starting from the day of immunization. The volumes of their hind paws were measured in a water displacement plethysmometer (Ugo Basile, Italy). The baseline paw measurements were taken before onset of the disease (between day 7 to day 10). The paw measurements were then taken three times a week until the end of the study on day 20 to 21. All procedures involving animals were reviewed and approved by the Institutional Animal Care Use Committee.

The subject of a further assay is kidney histology score. The experiment in a line: MRL/lpr lupus model: kidney histological analysis. It is filed as in vivo. The note with it: MRL/lpr mice, p.o. daily. As for the experimental part:
(§1) MRL/lpr is a spontaneous model of lupus. Male MRL/lpr mice (Jackson Laboratory) at the age of 12-14 weeks were enrolled for the study (N=12). Mice were dosed p.o. daily with vehicle (18.4% (w/v) hydroxypropyl-b-cyclodextrin in 13.8 mM citric acid) or with Example 681 at 0.06, 0.3, 1.5 mg/kg. Mice were bled every other week for anti-dsDNA antibodies measured by ELISA using pooled serum from diseased MRL/lpr mice as a positive comparator in each assay. The data were expressed in arbitrary units as a ratio of the titer of the test serum to the titer of the pooled MRL/lpr immune serum.
At the end of study, one kidney was collected into 10% neutral buffered formalin and ZincTris fixatives. Fixed tissues were processed into paraffin blocks, sectioned at […], and stained with H&E or PASH. Kidney sections were graded using following criteria: Glomerular Damage: 1. Mesangial matrix thickening, cell proliferation, 2. Crescent formation, cellular deposits/casts in Bowman's space, 3. Cellular infiltration, mononuclear cells in glomerular tufts, 4. Fibrosis of Bowman's capsule. Tubular damage: 1. Infiltration of mononuclear cells, 2. Severity of tubular damage, 3. Protein casts. Tubulo-interstitial damage: 1. Fibrosis, 2. Infiltration of mononuclear cells. Each subcategory was assigned a score from 0-4, with the scores for glomerular indices representing the mean from 20 glomeruli per kidney. […]

The next assay deals with anti-dsDNA antibodies. The experiment in a line: MRL/lpr lupus model: anti-dsDNA antibody titers (ELISA). It is filed as in vivo. To be noted: MRL/lpr mice, p.o. daily. As for the experimental part:
as §1
A general note: In an ELISA, binding on a coated surface is turned into a signal by an enzyme label.

Assay [2] has as its system experimental autoimmune encephalomyelitis, clinical score. The experiment in a line: Mouse experimental autoimmune encephalomyelitis assay (EAE). The assay is classed as in vivo. The note with it: C57Bl/6 mice, prophylactic oral dosing regimen.
For assay [3] the test system is unchanged. The experiment in a line: Rat experimental autoimmune encephalomyelitis (EAE). The assay is classed as in vivo, Lewis rats. The note with it: Lewis rat, prophylactic oral dosing regimen. How it is done:
Female Lewis rats (150-200 g; Harlan) were immunized at the base of the tail with 0.1 ml of a complete Freund's adjuvant emulsion containing 0.5 mg/mL guinea pig myelin basic protein (Genemed Synthesis) and 2 mg/mL Mycobacterium butyricum (Difco). Beginning on Day 7, rats (n=11/group) were scored individually at least 3×/wk according to the following scheme: [table] Average clinical scores were calculated for each treatment group on each day of assessment.

“Also recorded” adds a separate entry of the source.

Sequence of S1P1 (P21453 whole entry): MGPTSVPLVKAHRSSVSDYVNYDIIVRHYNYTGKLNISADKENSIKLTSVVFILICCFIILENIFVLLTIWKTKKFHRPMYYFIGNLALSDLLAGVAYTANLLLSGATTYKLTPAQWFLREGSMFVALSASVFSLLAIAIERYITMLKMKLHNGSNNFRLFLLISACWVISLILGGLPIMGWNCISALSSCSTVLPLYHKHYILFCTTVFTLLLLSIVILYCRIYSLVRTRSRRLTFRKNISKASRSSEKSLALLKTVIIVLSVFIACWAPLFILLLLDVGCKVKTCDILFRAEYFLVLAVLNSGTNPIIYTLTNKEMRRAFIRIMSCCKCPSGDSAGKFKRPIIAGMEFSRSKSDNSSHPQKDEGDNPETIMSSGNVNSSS
Sequence of S1P3 (EDG3) (Q99500 whole entry): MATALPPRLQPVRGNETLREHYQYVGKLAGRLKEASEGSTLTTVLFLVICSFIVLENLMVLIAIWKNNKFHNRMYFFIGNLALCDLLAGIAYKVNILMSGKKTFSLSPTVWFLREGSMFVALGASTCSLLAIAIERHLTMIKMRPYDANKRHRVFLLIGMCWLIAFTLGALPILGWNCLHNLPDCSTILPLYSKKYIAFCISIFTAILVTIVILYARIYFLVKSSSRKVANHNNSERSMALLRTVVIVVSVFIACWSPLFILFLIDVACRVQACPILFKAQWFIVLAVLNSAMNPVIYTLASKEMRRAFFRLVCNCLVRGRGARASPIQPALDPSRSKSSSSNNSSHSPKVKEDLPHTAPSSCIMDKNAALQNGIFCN

On to `COc1ccccc1CCC1CCc2cc([C@H]3CC[C@](N)(COP(=O)(O)O)C3)ccc2C1` (single isomer, unassigned) [Example 697], for which the “activity as an agonist of S1P1” value at S1P1 is on record as “possessed activity as an agonist of S1P1”.

Take `COCCCCCC1CCc2cc([C@H]3CC[C@](N)(COP(=O)(O)O)C3)ccc2C1` (single isomer, unassigned) [Example 689]: the “selectivity over S1P3” value on S1P3 (EDG3) is given as “selective over S1P3”. For the same molecule, the “activity as an agonist of S1P1” value on S1P1 was “possessed activity as an agonist of S1P”.

For `COCCCCC[C@H]1CCc2cc([C@H]3CC[C@](N)(CO)C3)ccc2C1` [Example 672, ((1R,3S)-1-amino-3-((S)-6-(5-methoxypentyl)-5,6,7,8-tetrahydronaphthalen-2-yl)cyclopentyl)methanol], the “inhibition of disease progression as measured by reduced paw swelling” value in assay [1] is listed as “showed inhibition of disease progression”.

Consider `COc1ccccc1CC[C@@H]1CCc2cc([C@H]3CC[C@](N)(CO)C3)ccc2C1` [Example 681, ((1R,3S)-1-amino-3-((S)-6-(2-methoxyphenethyl)-5,6,7,8-tetrahydronaphthalen-2-yl)cyclopentyl)methanol], for which the “inhibition of disease progression as measured by kidney histology” value in the assay with kidney histology score is given as “showed inhibition of disease progression”. Besides, the “inhibition of disease progression as measured by anti-dsDNA titers” value in the assay with anti-dsDNA antibodies was “showed inhibition of disease progression”. Moreover, in assay [2], the “inhibition of disease progression as measured by clinical scores” value was “showed inhibition of disease progression; also recorded: inhibit disease progression”.

Turning to `CCOCCC[C@@H]1CCc2cc([C@H]3CC[C@](N)(CO)C3)ccc2C1` [Example 679, ((1R,3S)-1-amino-3-((S)-6-(3-ethoxypropyl)-5,6,7,8-tetrahydronaphthalen-2-yl)cyclopentyl)methanol], the “inhibition of disease progression as measured by reduced clinical scores” value in assay [3] is reported as “showed inhibition of disease progression”. In addition, the “inhibition of disease progression as measured by clinical scores” value in assay [2] is on record as “showed inhibition of disease progression; also recorded: inhibit disease progression”. In assay [1], the “inhibition of disease progression as measured by reduced paw swelling” value is given as “showed inhibition of disease progression”.
